Laboratory results: paper PMC10845954, “Novel antimicrobial peptides identified in legume plant, Medicago truncatula” (Microbiology Spectrum, 2024)
≈ marks a conversion by molar mass, not a printed value. Where a SMILES comes first, the peptide text is derived from it. Where no end group is shown, it is not given here.

Legend:
human erythrocytes = assay: Human red blood cell hemolysis; type: cell-based; details: 100 µM
Experimental: With a few minor modifications, red blood cell hemolysis was carried out as previously described ([21]). On a 96-well microtiter plate, 100, 10, 1, and 0 µM NCRs, NCR094 and NCR992 were placed in each well, and […] of 1× PBS was carried out across the plate. Each well received an equivalent volume of 1% human erythrocytes that had been re-suspended in PBS after being washed once with PBS (5 minutes by centrifugation at 3,000 × g to prevent non-specific red blood cell lysis). The plate was then incubated at 37°C for 24 hrs.
As negative and positive controls for hemolysis, respectively, PBS alone and 1% sodium hypochlorite alone were utilized. At a wavelength of 405 nm, hemoglobin release was measured, and the hemolytic capability was expressed as a percentage of the sodium hypochlorite control (100%). The normalization equation normalization = NCR average – negative control average was used to compute the hemolysis percentage. Hemolysis percentage = normalization of NCRs ÷ average of positive control × 100. The hemolysis of 20% and above was considered as toxic to human red blood cells as reported previously ([22]). The mean values and standard deviation (SD) for each assay were carried out in triplicate and repeated three times.
Fig 6 The hemolysis % of the NCRs (NCR094 and NCR992) toward human red blood cells. One percent human red blood cells were treated with 100 µM of the NCRs. (A) NCR094 WT, NCR094.1, NCR094.2, and NCR094.3. (B) NCR992 WT, NCR992.1, NCR992.2, and NCR992 for 16 hrs without shaking. One hundred […] of supernatants was transferred into a new 96-well plate, and the absorbance was measured using a plate reader at 405 nm wavelength. Polymyxin B treatment was […] control. The results were represented as average of the % hemolysis and standard deviations from three independent experiments.
Figure S.1. Dose-dependent hemolysis assay for the NCR collection used in this study.
1% Human red blood cells were treated with 10-fold concentration (100, 10, 1, 0 μM) of NCRs A) (NCR094.1, B)
NCR992 WT) C) NCR992.1, D) NCR992.2, and E) NCR992.1for 18 hrs without shaking. […] of supernatants
were transferred into new 96-well plate and the absorbance was measured using a plate reader at 405 nm wavelength.
The results were represented as average of the % hemolysis and error bars were ± SD values from three independent
(also on this page, place not known: 10100 % of Toxicity 10100 80% of Toxicity 10100 % of Toxicity 10100 % of Toxicity 10100 S- % of Toxicity A)

K. pneumoniae ATCC700603 [1] = type: cell-based, Klebsiella pneumoniae; details: human whole blood, 12.5 µM, 18 hrs 37°C; mean of three independent experiments
Experimental: The whole killing assay was performed as previously described ([19]). Briefly, freshly drawn peripheral venous whole blood was collected on a heparin tube from healthy adult volunteers. To do this, unchallenged blood with and without NCRs at the MIC (blood from the same individuals) was used. Whole blood was then challenged with MRSA or K. pneumoniae ex vivo and incubated for an overnight period at 37°C. Tenfold serial dilution was plated on MH agar media post-18 hrs treatment ([19]). Killing% was calculated as follows: killing% = CFUs for no treatment − CFUs for NCR treatment ÷ […] × 100. Three independent experiments were performed.
The killing effect of NCRs on MRSA and K. pneumoniae was investigated using an ex vivo whole blood killing assay as a preliminary screening method to discover peptides with potential immune-boosting activity. […] The bactericidal ability (killing%) of human whole blood was monitored by counting the CFUs post-18 hrs, and the killing% was calculated.
Fig 2 Whole blood killing assay of NCR094 in the wild type and the derivatives, ex vivo antimicrobial assay. […] CFUs were calculated to estimate the killing percentage. […]
Fig 4 Whole blood killing assay of NCR992 in the wild type and the derivatives, the ex vivo antimicrobial assay. […] CFUs were calculated to estimate the killing percentage. […]

K. pneumoniae ATCC700603 [2] = type: cell-based, Klebsiella pneumoniae
Experimental: (§1) Bacterial strains used in the experiment were MRSA ATCC29213 and K. pneumoniae ATCC700603. Three NCRs, NCR094 (GenBank# KEH42094.1), NCR992 (GenBank# KEH8992.1), and NCR888 (GenBank# KEH37888.1), and designed derivatives were supplied from GenScript (United States). MRSA and K. pneumoniae were streaked for colonies on blood agar plates and incubated at 37°C for 18–24 hrs. MRSA and K. pneumoniae’s colonies were cultured in cation-adjusted Mueller–Hinton broth (MHB) media and incubated at 37°C for 18–24 hrs. For the in vitro killing assay and the ex vivo human killing assay, MRSA and K. pneumoniae were cultured on an MHB agar plate for 18 hrs at 37°C.
(§2) A broth microdilution assay in cation-adjusted MHB (MilliporeSigma, United States) was used to determine the minimum inhibitory concentrations (MICs) and the mimium bactericidal concentration (MBCs) of our NCR collection’s NCR094, NCR888, and NCR992. After a final bacterial inoculum of 5 × 10^5 CFU/mL was set and incubated for an overnight period at 37°C, the MIC of the NCRs that prevented MRSA or K. pneumoniae from growing visibly was measured. The MBCs was measured by subculturing the broths used in MIC determination into fresh NCR-free agar plates. The MICs of the NCRs were measured after the NCRs were added to the MRSA or K. pneumoniae cultures and dissolved in sterile distilled water.
The bacterial cultures of MRSA and K. pneumoniae were treated with different concentrations of the synthetic NCRs (MRSA: 25, 12.5, 6.25, 3.125, and 0 µM; K. pneumoniae: 50, 25, 12.5, 6.25, 3.125, and 0 µM). […] Thus, NCR888 in the wild type and the different variants were not included in the downstream assays.

MRSA ATCC29213 = assay: Broth microdilution MIC/MBC; type: cell-based, Staphylococcus aureus; details: tested 25, 12.5, 6.25, 3.125 µM; post-18 hrs of treatment
Experimental: as §1
as §2, with “water. […]” for “water.”

Compound | hemolysis % (human erythrocytes) [%] | also measured
CC[C@H](C)[C@H](NC(=O)[C@H](CCSC)NC(=O)CNC(=O)[C@H](Cc1ccccc1)NC(=O)[C@H](CCC(=O)O)NC(=O)[C@H](CS)NC(=O)[C@@H](N)CCSC)C(=O)N[C@@H](CCCNC(=N)N)C(=O)N[C@@H](CCCNC(=N)N)C(=O)N[C@@H](CS)C(=O)O [NCR992.1] (H-MCEFGMIRRC-OH; N-terminus and C-terminus assumed) | 63.67 | 
CC[C@H](C)[C@H](NC(=O)[C@H](CCCCN)NC(=O)[C@@H](NC(=O)[C@H](C)NC(=O)[C@H](CCCNC(=N)N)NC(=O)[C@H](CS)NC(=O)[C@H](Cc1ccc(O)cc1)NC(=O)[C@H](CC(N)=O)NC(=O)CNC(=O)[C@@H](NC(=O)[C@H](CS)NC(=O)[C@H](CCCNC(=N)N)NC(=O)[C@H](Cc1ccc(O)cc1)NC(=O)[C@@H](NC(=O)[C@@H](NC(=O)[C@@H](N)CCC(N)=O)C(C)C)C(C)C)C(C)C)C(C)C)C(=O)N[C@@H](CCCNC(=N)N)C(=O)N[C@@H](CCCNC(=N)N)C(=O)N[C@@H](Cc1c[nH]c2ccccc12)C(=O)N[C@@H](CC(N)=O)C(=O)N[C@@H](CC(C)C)C(=O)NCC(=O)O [NCR094.2] (H-QVVYRCVGNYCRAVKIRRWNLG-OH; N-terminus and C-terminus assumed) | 8.99 | 
YLKSKTVHDSPKSQVVYRSVGNYCRAVKIRRWNLG [NCR094.3] | 0.69 | Killing% of K. pneumoniae ex vivo (K. pneumoniae ATCC700603 [1]): relatively similar killing activity
MSEFGMIRRSISYKSQSHEAY [NCR992.3] | 93.34 | 
CC(C)C[C@H](NC(=O)[C@@H](N)Cc1ccc(O)cc1)C(=O)N[C@@H](CCCCN)C(=O)N[C@@H](CS)C(=O)N[C@@H](CCCCN)C(=O)N[C@H](C(=O)N[C@H](C(=O)N[C@@H](Cc1c[nH]cn1)C(=O)N[C@@H](CC(=O)O)C(=O)N[C@@H](CS)C(=O)N1CCC[C@H]1C(=O)N[C@@H](CCCCN)C(=O)O)C(C)C)[C@@H](C)O [NCR094.1] (H-YLKCKTVHDCPK-OH; N-terminus and C-terminus assumed) | 49.38 | 
CC[C@H](C)[C@H](N)C(=O)N[C@@H](CO)C(=O)N[C@@H](Cc1ccc(O)cc1)C(=O)N[C@@H](CCCCN)C(=O)N[C@@H](CS)C(=O)N[C@@H](CCC(N)=O)C(=O)N[C@@H](CS)C(=O)N[C@@H](Cc1c[nH]cn1)C(=O)N[C@@H](CCC(=O)O)C(=O)N[C@@H](C)C(=O)N[C@@H](Cc1ccc(O)cc1)C(=O)O [NCR992.2] (H-ISYKCQCHEAY-OH; N-terminus and C-terminus assumed) | 66.77 | 
MCWPSFKPRCSNGWCVCDKIMP [NCR888, wild-type nodule-specific cysteine-rich peptide of Medicago truncatula, 22 residues, chemically synthesized] |  | inhibition or killing of K. pneumoniae (in words) (K. pneumoniae ATCC700603 [2]; tested 50, 25, 12.5, 6.25, 3.125 µM, post-18 hrs of treatment): did not inhibit or kill; inhibition or killing of MRSA (in words) (MRSA ATCC29213): did not inhibit or kill
CC[C@H](C)[C@H](NC(=O)[C@H](CCCCN)NC(=O)[C@@H](NC(=O)[C@H](C)NC(=O)[C@H](CCCNC(=N)N)NC(=O)[C@H](CS)NC(=O)[C@H](Cc1ccc(O)cc1)NC(=O)[C@H](CC(N)=O)NC(=O)CNC(=O)[C@@H](NC(=O)[C@H](CS)NC(=O)[C@H](CCCNC(=N)N)NC(=O)[C@H](Cc1ccc(O)cc1)NC(=O)[C@@H](NC(=O)[C@@H](NC(=O)[C@H](CCC(N)=O)NC(=O)[C@H](CO)NC(=O)[C@H](CCCCN)NC(=O)[C@@H]1CCCN1C(=O)[C@H](CS)NC(=O)[C@H](CC(=O)O)NC(=O)[C@H](Cc1c[nH]cn1)NC(=O)[C@@H](NC(=O)[C@@H](NC(=O)[C@H](CCCCN)NC(=O)[C@H](CS)NC(=O)[C@H](CCCCN)NC(=O)[C@H](CC(C)C)NC(=O)[C@@H](N)Cc1ccc(O)cc1)[C@@H](C)O)C(C)C)C(C)C)C(C)C)C(C)C)C(C)C)C(=O)N[C@@H](CCCNC(=N)N)C(=O)N[C@@H](CCCNC(=N)N)C(=O)N[C@@H](Cc1c[nH]c2ccccc12)C(=O)N[C@@H](CC(N)=O)C(=O)N[C@@H](CC(C)C)C(=O)NCC(=O)O [NCR094] (H-YLKCKTVHDCPKSQVVYRCVGNYCRAVKIRRWNLG-OH; N-terminus and C-terminus assumed) | 15.41 | minimum inhibitory concentration (MIC) (K. pneumoniae ATCC700603 [2]; ATCC700603): 12.5 µM (≈ 52 µg/mL); minimum bactericidal / killing concentration (MBC), complete killing (K. pneumoniae ATCC700603 [2]; ATCC700603, 18 h): 25 µM
